Activity calls are given as the source filed them. No cut-off for these calls is given here.
What follows are molecules tested on Musca domestica (assay: Insecticidal activity against Musca domestica (housefly) assessed as paralysis at 28 degC measured after 24 hr at 10 ug topically).
Assay type: functional, organism-based
COc1ccc(O[Si](C)(C)C(C)(C)C)cc1[C@H]1OC[C@]2(O[Si](C)(C)C(C)(C)C)C(Oc3c(OC)cccc3OC)OC[C@H]12 (mixture of isomers) was tested, and the Activity was “inactive”.
For COCCOCCOc1ccc(OC)c([C@H]2OC[C@]3(O)[C@@H](Oc4c(OC)cccc4OC)OC[C@H]23)c1 (racemic), the Activity was “Active”.
In the case of COCCOc1ccc(OC)c([C@H]2OC[C@]3(O)[C@@H](Oc4c(OC)cccc4OC)OC[C@H]23)c1 (racemic), the Activity is reported as “Active”.
With COCCOc1ccc(OC)c([C@H]2OC[C@]3(O)[C@H](Oc4c(OC)cccc4OC)OC[C@H]23)c1 (racemic) the Activity was “inactive”.
With COc1ccc(O)cc1[C@H]1OC[C@]2(O)[C@H](Oc3c(OC)cccc3OC)OC[C@H]12 (racemic) the Activity was “inactive”.
For COc1ccc(O)cc1[C@H]1OC[C@]2(O[Si](C)(C)C(C)(C)C)[C@@H](Oc3c(OC)cccc3OC)OC[C@H]12 (racemic), the Activity was “inactive”.
For COc1ccc(OCc2ccc3c(c2)OCO3)cc1[C@H]1OC[C@]2(O)[C@@H](Oc3c(OC)cccc3OC)OC[C@H]12 (racemic), the Activity was “inactive”.

What follows are molecules tested on Musca domestica (assay: Insecticidal activity against Musca domestica (housefly) assessed as paralysis at 28 degC measured per fly after 24 hr).
Assay type: functional
CCCCOc1ccc(OC)c([C@H]2OC[C@]3(O)[C@@H](Oc4c(OC)cccc4OC)OC[C@H]23)c1 (racemic) gave an LD50 of 8 µg.

From ChEMBL document CHEMBL3044759, “Synthesis and Insecticidal Activity of Lignan Analogs. (1)” (1991)
